Experimental data as given in US5216124A, “Substituted cyclic tetrapeptides” (G. D. Searle & Co., priority 1991, dated 1993).
“Also recorded” adds a separate entry of the source. Counter-ions that a name gives are not always drawn. Positions of bridges follow the written chain, without caps; N, C: chain ends. Non-standard residues stand in square brackets, D forms with d. Residues, ends and D or L forms follow the SMILES beside them. Dmt = Cc1cc(O)cc(C)c1C[C@H](N)C(=O)O; dPen = CC(C)(S)[C@@H](N)C(=O)O

Tests used:
μ opioid receptors = μ opioid receptors (Rattus norvegicus, UniProt P33535); assay: Opiate Binding Assay, displacement of 3[H]-DAMPGO
CD Charles River mice = assay: Writhing Assay (PBQ-induced writhing); assay type: in vivo, mouse; settings: for number of mice out of ten in which peptide was active, Intragastric: 10 mg/kg i.g., PBQ i.p. 15 min after dosing; for ED50 value, subcutaneous: s.c.
Description: The "Writhing Assay" is one of the most widely-used experimental procedures for measuring the analgesic activity of different narcotic and nonnarcotic analgesic agents, and involves the continuous, chemically-induced pain of visceral origin to an animal, such as a mouse or rat. [Gyires et al., Arch. int. Pharmacodyn, 267, 131-140 (1984); C. Vander Wende et al., Fed. Proc., 15, 494 (1956); Koster et al., Fed. Proc., 18, 412 (1959); and Witken et al., J. Pharmacol. Exp. Ther., 133, 400-408 (1961). ] Chemicals which may be used to induce this pain include phenylbenzoquinone (PBQ) and acetic acid. As a result of the chemical irritation to the animal, a characteristic stretching and writhing of the animal (dorsiflexion of the animal's back, extension of its hindlimbs an the strong contraction of its abdominal musculature) will generally occur. […] Drugs which reduce the number of writhes of the animal appear to restore the normal nociceptive threshold of the animal.
This assay was conducted generally in the manner described by R. I. Taber, "Predictive Value of Analgesic Assays in Mice and Rats,"Advances in Biochemical Psychopharmacology, 8, 191 (1974). The Methyl Ester Tetrapeptide and Test Tetrapeptides Nos. 1, 3, 4, 5, 6, 7, 8 and 9 were tested in this assay.
Two hundred CD Charles River mice, weighing 20 to 30 grams were used in this assay.
Twenty-five minutes after subcutaneous administration, and fifteen minutes after intragastric administration, to the mice of 10 mg per kilogram of body weight of either a Test Tetrapeptide or the Methyl Ester Tetrapeptide, […] of body weight of a 0.025% w/v solution of PBQ was injected intraperitoneally into each mouse. Some mice were given saline in place of a Test Tetrapeptide or the Methyl Ester Tetrapeptide, and were used as a control group.
Five minutes later, each mouse was individually placed into a glass beaker for observation, and the number of writhes occurring during the following ten-minute period was counted.
A tetrapeptide compound was considered to be "active" (to have produced analgesia in a mouse) if, in accordance with the conditions set forth above, and under the test criteria employed for this assay, after the administration of 10 mg per kilogram of body weight of the tetrapeptide to the mouse, the number of writhes elicited by a mouse injected with PBQ was equal to, or less than, one-half the median number of writhes recorded for the saline-treated control group of mice that day, as described by R. I. Taber, supra.
The standard initial screening dose of a compound employed in this assay was 10 mg per kilogram (mpk) of body weight for both routes of administration. If this initial screening dose of the tetrapeptide produced analgesia in seven of ten mice, then the effect of additional doses of the tetrapeptide on the writhing response was evaluated, and then the ED50 value (that dose of a Test Tetrapeptide or the Methyl Ester Tetrapeptide which produced analgesia in 50% of the mice to which the tetrapeptide was administered) was generally calculated. A maximum likelihood function was used to determine the ED50 value. (The slopes of the dose-response curves for all tetrapeptides analyzed were compared as described by Tallarida and Murray, Manual of Pharmacologic Calculations, Page 11 (Springer Verlag, N.Y., 1981)).

δ opioid receptors = δ opioid receptors (Rattus norvegicus, UniProt P33533); assay: Opiate Binding Assay, displacement of 3[H]-DSLET
[1] = system: Charles River albino mice; assay: Hot Plate Assay (Hind Paw Lick Assay); assay type: in vivo, mouse
Description: (§1) The "Tail Flick Assay" and the "Hot Plate Assay" (also known as the "Hind Paw Lick Assay") use thermal pain of transient duration, and are tests in which the pain threshold of the mice or rats being analyzed has not been altered. They are useful for evaluating the ability of a compound or drug to increase the animal's pain threshold (i.e. prolong response latencies), rather than to restore normal thresholds.
(§2) The heat-induced response to the Tail Flick Assay is a reflex reaction mediated at the level of the spinal cord. The heat-induced response to the Hot Plate Assay, however, is a more complex behavior requiring integration at higher centers in the brain. […]
(§3) Tail flick response latencies (defined as the time that elapsed between the onset of a high intensity beam of light and the reflex removal of the mouse or rat's tail) and hot plate response latencies (defined as the time that elapsed between the placement of a mouse or rat on a 55 degrees Celsius surface and a lick of the hind paw) were separately, but consecutively, measured before (baseline) and again at fixed intervals after subcutaneous or intracerebroventricular administration of one of the tetrapeptide compounds of the invention, the Methyl Ester Tetrapeptide, the Mosberg Tetrapeptide, or after the administration of saline (controls). […]

[2] = system: Charles River albino mice; assay: Tail Flick Assay; assay type: in vivo, mouse; settings: listed as Test Tetrapeptide No. 1, monohydrochloride
Description: as §1, §2, §3

δ opioid receptors, sequence (P33533 whole entry): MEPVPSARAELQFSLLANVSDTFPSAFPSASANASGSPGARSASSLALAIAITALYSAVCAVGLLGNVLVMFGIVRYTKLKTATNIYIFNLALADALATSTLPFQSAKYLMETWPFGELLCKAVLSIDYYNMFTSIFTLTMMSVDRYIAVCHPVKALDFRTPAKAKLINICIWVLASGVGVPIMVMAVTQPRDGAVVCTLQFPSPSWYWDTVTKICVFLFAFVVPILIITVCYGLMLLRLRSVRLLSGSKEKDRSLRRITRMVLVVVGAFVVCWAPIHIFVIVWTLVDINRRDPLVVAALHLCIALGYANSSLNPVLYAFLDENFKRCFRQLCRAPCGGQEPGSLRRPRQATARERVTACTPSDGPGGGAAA
μ opioid receptors, sequence (P33535 whole entry): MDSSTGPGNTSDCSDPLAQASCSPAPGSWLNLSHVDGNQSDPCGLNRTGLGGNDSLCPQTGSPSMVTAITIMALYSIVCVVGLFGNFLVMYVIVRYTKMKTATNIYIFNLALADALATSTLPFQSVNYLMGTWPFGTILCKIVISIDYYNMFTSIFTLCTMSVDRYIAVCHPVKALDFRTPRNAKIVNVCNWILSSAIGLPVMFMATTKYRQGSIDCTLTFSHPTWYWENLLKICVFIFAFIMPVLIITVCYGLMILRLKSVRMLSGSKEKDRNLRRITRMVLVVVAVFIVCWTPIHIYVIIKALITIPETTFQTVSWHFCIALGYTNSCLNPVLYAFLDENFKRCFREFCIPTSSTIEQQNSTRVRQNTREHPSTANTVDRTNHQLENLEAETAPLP

Compound | Percent Displacement (μ) (μ opioid receptors; at 100 nM, 3[H]-DAMPGO) [%] | number of mice out of ten in which peptide was active, Intragastric (CD Charles River mice) | number of mice out of ten in which peptide was active, Subcutaneous (CD Charles River mice; 10 mg/kg s.c., PBQ i.p. 25 min after dosing) | Percent Displacement (δ) (δ opioid receptors; at 100 nM, 3[H]-DSLET) [%] | IC50 (μ opioid receptors) [nM] | IC50 (δ opioid receptors) [nM] | ED50 value, subcutaneous (CD Charles River mice) | ED50 value, subcutaneous (CD Charles River mice; PBQ i.p. 25 min after dosing) [mpk] | activity (increase in hot plate latency), Intracerebroventricular ([1]; i.c.v., at 1.0 μg/kg) | activity (increase in hot plate latency), Subcutaneous ([1]; s.c., at 100 mpk, listed as Test Tetrapeptide No. 1, monohydrochloride, 100 mg/kg) | Mean IC50 Value μ/δ Ratio (δ opioid receptors; ratio of mean IC50 μ to δ, above 1.0 = more specific for δ) | activity (increase in tail flick latency), Intracerebroventricular ([2]; i.c.v., at 1 μg/kg) | activity (increase in tail flick latency), Subcutaneous ([2]; s.c., at 100 mpk, 100 mg/kg)
2,6-dimethyl-L-tyrosyl-D-cysteinyl-4-chloro-L-phenylalanyl-3-mercapto-D-valine, cyclic (2→4)-disulfide, methyl ester, monohydrochloride [Example 32] | 18 | 4/10 | 4/10 | 44 | – | – | – | – | – | – | – | – | –
Cc1cc(O)cc(C)c1C[C@H](N)C(=O)N[C@@H]1CSSC(C)(C)[C@H](C(=O)O)NC(=O)[C@H](Cc2ccccc2)NC1=O [Example 4, 2,6-dimethyl-L-tyrosyl-D-cysteinyl-L-phenylalanyl-3-mercapto-D-valine, cyclic (2→4)-disulfide] (H-[Dmt][dC]F[dPen]-OH; disulfide 2-4) | – | – | – | – | 5.4 | 0.4 | – | – | – | – | – | – | –
COC(=O)[C@@H]1NC(=O)[C@H](Cc2ccccc2)NC(=O)[C@H](NC(=O)[C@@H](N)Cc2c(C)cc(O)cc2C)CSSC1(C)C [Example 25, 2,6-dimethyl-L-tyrosyl-D-cysteinyl-L-phenylalanyl-3-mercapto-D-valine, cyclic (2→4)-disulfide. methyl ester, monohydrochloride] (H-[Dmt][dC]F[dPen]-OMe; disulfide 2-4) | – | 3/10 | – | – | – | – | 4.1 mg per kg of body weight | 4.1 | Active | Active; also recorded: showed activity | 1.2 | active | Active; also recorded: showed activity
